Entries after “also recorded” stand apart in the source; their conditions may differ.
Experiments:
[1] = system: HL-60, Kasumi-1 and NB4; assay: Apoptosis by Annexin V / propidium iodide flow cytometry in three AML cell lines; format: cell-based; conditions: single agent; 96 hours; HL-60, Kasumi-1, NB4
Description: (§1) Briefly, the AML cell lines HL-60 (FIGS. 4A and 4D), Kasumi-1 (FIGS. 4B and 4E) and NB4 (FIGS. 4C and 4F) were treated with the indicated concentrations of compounds. In FIGS. 4A-C, surface levels of myeloid differentiation marker CD11b were determined by FACS at 72 hours post-treatment. […] In FIGS. 4D-F, apoptosis was assessed by flow cytometry by measuring Annexin V binding and cellular permeability to propidium iodide at 96 hours post-treatment. The relative fraction of cells that were alive, in early apoptosis, in late apoptosis, or dead was then determined.
(§2) FIGS. 10A-F show the treatment of the following AML cell lines: Kasumi-1 (FIGS. 10A and 10B), HL-60 (FIGS. 10C and 10D) and NB4 (FIGS. 10E and 10F), with indicated doses of compounds. FIGS. 10A, 10C, and 10E show surface levels of myeloid differentiation marker CD11b determined by FACS at 72 h post-treatment. […] FIGS. 10B, 10D, and 10F show the assessment of apoptosis by FACS (see, e.g., FIG. 9C).

[2] = system: Kasumi-1; assay: Apoptosis by Annexin V / propidium iodide flow cytometry in Kasumi-1; format: cell-based; conditions: 96 hours; for apoptotic cells: combination with azacitidine vs single agent
Description: as §1
(§3) Briefly, cells were treated with DMSO, Compound B, Compound A, or Compound E as a single agent or in combination with azacitidine at the indicated concentrations. Surface levels of CD11b were determined 72 hours post-treatment (FIGS. 6A, 6C, 6E), and apoptosis was assessed 96 hours post-treatment (FIGS. 6B, 6D, 6F).

[3] = system: HL-60; assay: Surface CD11b by FACS in HL-60; format: cell-based; conditions: combination with azacitidine vs single agent, 96 hours
Description: as §1
(§4) FIGS. 5A-F show the combination of HDAC inhibitors and azacitidine in the HL-60 cell line. Briefly, cells were treated with DMSO, Compound B, Compound A, or Compound E as a single agent or in combination with azacitidine for 96 hours. Surface levels of CD11b (FIGS. 5A, 5C, 5E) and apoptosis (FIGS. 5B, 5D, 5F) was assessed by flow cytometry, as in FIG. 4.

[4] = system: NB4; assay: Apoptosis by Annexin V / propidium iodide flow cytometry in NB4; format: cell-based; conditions: 96 hours; for apoptotic cells: combination with azacitidine vs single agent
Description: as §1
FIGS. 7A-F show the combination of HDAC inhibitors and azacitidine in the NB4 cell line. Briefly, cells were treated with DMSO, Compound B, Compound A, or Compound E as single agent or in combination with azacitidine at the indicated concentrations. Surface levels of CD11b were determined 72 hours post-treatment (FIGS. 7A, 7C, 7E), and apoptosis was assessed 96 hours post-treatment (FIGS. 7B, 7D, 7F).

[5] = system: HL-60; assay: Apoptosis by Annexin V / propidium iodide flow cytometry in HL-60; format: cell-based; conditions: 96 hours; for apoptotic cells: combination with azacitidine vs single agent
Description: as §1, §4

[6] = system: HL-60, Kasumi-1 and NB4; assay: Surface CD11b by FACS in three AML cell lines; format: cell-based; conditions: single agent; 72 hours; all three cell lines
Description: as §1, §2

[7] = system: MV4-11; assay: Surface CD11b by FACS in MV4-11; format: cell-based; conditions: 72 h
Description: (§5) The distribution of cells among G0/G1 phase, G2/M phase, S phase and subG1 phase was determined. […] The relative fraction of cells that were live, in early apoptosis, in late apoptosis, or dead was then determined.
(§6) MV4-11 cells were treated with Compound E or with Compound A or with Compound B as single agent or in combination with azacitidine at indicated doses. FIGS. 12A, 12C, and 12E show surface levels of CD11b determined by FACS at 72 h post-treatment. FIGS. 12B, 12D, and 12F show assessment of apoptosis by FACS (as in, e.g., FIG. 9C) at 96 h post-treatment.
(§7) FIG. 17. […] (A) Indicated AML cell lines were exposed to increasing concentrations of Compound J to confirm their sensitivity to HDAC1/2 inhibition. (B-D) MV4-11 cells were treated with indicated concentrations of compounds. (B) Surface levels of myeloid differentiation marker CD11b were determined by FACS at 72 h post-treatment. […] (C) Cell cycle was assessed by flow cytometry after incorporation of EdU and staining with Far Red at 72 h post-treatment. The distribution of cells among G0/G1 phase, G2/M phase, S phase and subG1 phase was determined. […] (D) Apoptosis was assessed by flow cytometry via measuring Annexin V binding and cellular permeability to propidium iodide at 96 h post-treatment. The relative fraction of cells that were live, in early apoptosis, in late apoptosis or dead was then determined.

[8] = system: MV4-11; assay: Apoptosis by Annexin V / propidium iodide flow cytometry in MV4-11; format: cell-based; conditions: 96 h; for induction of apoptosis: combination with azacitidine; for apoptosis relative to control cells: single agent
Description: as §5, §6, §7

[9] = system: HDAC1, HDAC2, HDAC3 and HDAC6; assay: HDAC selectivity of the inhibitor panel; format: biochemical; conditions: HDAC isoform(s) the inhibitor is selective for
Description: Compounds for testing are diluted in DMSO to 50 fold the final concentration and a ten point three fold dilution series is made. The compounds are diluted in assay buffer (50 mM HEPES, pH 7.4, 100 mM Kill, 0.001% Tween-20, 0.05% BASE, 20 μM TEC) to 6 fold their final concentration. The HDAC enzymes (purchased from BPS Biosciences) are diluted to 1.5 fold their final concentration in assay buffer. The dipeptide substrate and trypsin at 0.05 μM final concentration are diluted in assay buffer at 6 fold their final concentration. The final enzyme concentrations to use in these assays are 3.3 ng/ml (HDAC1), 0.2 ng/ml (HDAC2), 0.08 ng/ml (HDAC3) and 2 ng/ml (HDAC6). The final substrate concentrations to use are 16 μM (HDAC1), 10 μM (HDAC2), 17 μM (HDAC3) and 14 μM (HDAC6). Five μ1 of compound and 20 μl of enzyme are added to wells of a black, opaque 384 well plate in duplicate. Enzyme and compound are incubated together at room temperature for 10 min. Five μ1 of substrate is added to each well, the plate is shaken for 60 seconds and placed into a Victor 2 microliter plate reader. The development of fluorescence is monitored for 60 min. and the linear rate of the reaction is calculated. The IC50 is determined using Graph Pad Prism by a four parameter curve fit.
The following HDAC inhibitors were used to evaluate the relationship between HDAC selectivity and the viability of AML cell lines upon exposure to the HDAC inhibitor: […]

[10] = system: Kasumi-1; assay: Surface CD11b by FACS in Kasumi-1; format: cell-based; conditions: combination with azacitidine vs single agent, 72 hours
Description: as §1, §3

Compound | apoptosis relative to control cells [1] | apoptotic cells [2] | apoptosis ([2]; single agent) | CD11b positive cells [3] | apoptotic cells [4] | apoptosis ([4]; single agent) | apoptotic cells [5] | apoptosis ([5]; single agent) | percentage of CD11b positive cells [6] | percentage of CD11b positive cells ([7]; combination with azacitidine) | percentage of CD11b positive cells ([7]; single agent) | induction of apoptosis [8] | apoptosis relative to control cells [8] | Selectivity [9] | CD11b positive cells [10]
Nc1ccc(-c2cccs2)cc1NC(=O)c1ccc2c(c1)cc(C1CC1)n2CCN1CCOCC1 [Compound E, N-(2-amino-5-(thiophen-2-yl)phenyl)-2-cyclopropyl-1-(2-morpholinoethyl)-1H-indole-5-carboxamide] | increased apoptosis relative to control cells | synergistic increases | induced apoptosis | synergistic increases of CD11b positive cells | synergistic increases of apoptotic cells | minimal effects | synergistic increases | induced apoptosis | increased the percentage of CD11b positive cells | further increase of percentage of CD11b positive cells | increased the percentage of CD11b positive cells | enhanced induction of apoptosis greater than either single agent | increase in apoptosis relative to control cells | selective for HDAC1/2 | synergistic increases of CD11b positive cells
O=C(CCCCCCNC(=O)c1cnc(N(c2ccccc2)c2ccccc2)nc1)NO [Compound A, 2-(diphenylamino)-N-(7-(hydroxyamino)-7-oxoheptyl)pyrimidine-5-carboxamide] | increase in apoptosis relative to control cells; also recorded: increased apoptosis relative to control cells | synergistic increases |  | synergistic increases of CD11b positive cells | synergistic increases of apoptotic cells |  | synergistic increases |  | increased the percentage of CD11b positive cells | further increase of percentage of CD11b positive cells | increased the percentage of CD11b positive cells | enhanced induction of apoptosis greater than either single agent | increase in apoptosis relative to control cells | HDAC6 (1/2/3) | synergistic increases of CD11b positive cells
O=C(CCCCCCNC(=O)c1cnc(N(c2ccccc2)c2ccccc2Cl)nc1)NO [Compound B, 2-((2-chlorophenyl)(phenyl)amino)-N-(7-(hydroxyamino)-7-oxoheptyl)pyrimidine-5-carboxamide] | increase in apoptosis relative to control cells | synergistic increases |  | synergistic increases of CD11b positive cells | synergistic increases of apoptotic cells |  | synergistic increases |  | increased the percentage of CD11b positive cells | further increase of percentage of CD11b positive cells |  | enhanced induction of apoptosis greater than either single agent |  | HDAC6 (1/2/3) | synergistic increases of CD11b positive cells
